Among the data in US20050124667A1, “Oxamide inhibitors of plasminogen activator inhibitor-1” (priority 2003, published 2005) are melting point values, retold here.

Each structure is given as a SMILES string.

`O=C(Nc1cc(Cl)cc(Cl)c1O)C(=O)Nc1c(O)ccc2ccccc12` [Example 8, N-(3,5-Dichloro-2-hydroxy-phenyl)-N′-(2-hydroxy-naphthalen-1-yl)-oxalamide] came in with a melting point of 265 °C.

Compound `CN(C)CCCNC(=O)c1ccc(O)c(NC(=O)C(=O)Nc2cc(Cl)cc(Cl)c2O)c1` [Example 35, N-(3,5-Dichloro-2-hydroxy-phenyl)-N′-[5-(3-dimethylamino-propylcarbamoyl)-2-hydroxy-phenyl]-oxalamide] registered a melting point of 205 °C.

Compound `O=C(Nc1cc(Cl)cc(Cl)c1O)C(=O)Nc1ccc(F)c(F)c1O` [Example 20, N-(3,5-Dichloro-2-hydroxy-phenyl)-N′-(3,4-difluoro-2-hydroxy-phenyl)-oxalamide] gave a melting point of 302 °C.

On to `O=C(Nc1cccc(Cl)c1O)C(=O)Nc1cc(Cl)cc(Cl)c1O` [Example 19, N-(3-Chloro-2-hydroxy-phenyl)-N′-(3,5-dichloro-2-hydroxy-phenyl)-oxalamide], for which the melting point came out at 296 °C.

The compound `Cc1ccc(NC(=O)C(=O)Nc2cc(Cl)cc(Cl)c2O)c(O)c1` [Example 3, N-(3,5-Dichloro-2-hydroxy-phenyl)-N′-(2-hydroxy-4-methyl-phenyl)-oxalamide] had a melting point of 283 °C.

In turn, `O=C(Nc1cc([N+](=O)[O-])ccc1O)C(=O)Nc1cc(Cl)cc(Cl)c1O` [Example 4, N-(3,5-Dichloro-2-hydroxy-phenyl)-N′-(2-hydroxy-5-nitro-phenyl)-oxalamide] had a melting point of 386 °C.

Regarding `COC(=O)c1ccc(NC(=O)C(=O)Nc2cc(Cl)cc(Cl)c2O)c(O)c1` [Example 12, 4-[(3,5-Dichloro-2-hydroxy-phenylaminooxalyl)-amino]-3-hydroxy-benzoic Acid Methyl Ester], the melting point was 271 °C.

Compound `O=C(Nc1cc(C(F)(F)F)ccc1O)C(=O)Nc1cc(Cl)cc(Cl)c1O` [Example 21, N-(3,5-Dichloro-2-hydroxy-phenyl)-N′-(2-hydroxy-5-trifluoromethyl-phenyl)-oxalamide] yielded a melting point of 281 °C.

Turning to `N#Cc1ccc(O)c(NC(=O)C(=O)Nc2cc(Cl)cc(Cl)c2O)c1` [Example 15, N-(5-Cyano-2-hydroxy-phenyl)-N′-(3,5-dichloro-2-hydroxy-phenyl)-oxalamide], the melting point amounted to 298 °C.

For `O=C(Nc1cc(C(=O)NCCCn2ccnc2)ccc1O)C(=O)Nc1cc(Cl)cc(Cl)c1O` [Example 36, N-(3,5-Dichloro-2-hydroxy-phenyl)-N′-[2-hydroxy-5-(3-imidazol-1-yl-propylcarbamoyl)-phenyl]-oxalamide], the melting point came out at 175 °C.

Compound `CCC(C)(C)c1ccc(NC(=O)C(=O)Nc2cc(Cl)cc(Cl)c2O)c(O)c1` [Example 9, N-(3,5-Dichloro-2-hydroxy-phenyl)-N′-[4-(1,1-dimethyl-propyl)-2-hydroxy-phenyl]-oxalamide] had a melting point of 260 °C.

Consider `Cc1cccc(O)c1NC(=O)C(=O)Nc1cc(Cl)cc(Cl)c1O` [Example 10, N-(3,5-Dichloro-2-hydroxy-phenyl)-N′-(2-hydroxy-6-methyl-phenyl)-oxalamide], for which the melting point came out at 260 °C.

As to `O=C(Nc1ccc(C(=O)NCCCn2ccnc2)cc1O)C(=O)Nc1cc(Cl)cc(Cl)c1O` [Example 43, N-(3,5-Dichloro-2-hydroxy-phenyl)-N′-[2-hydroxy-4-(3-imidazol-1-yl-propylcarbamoyl)-phenyl]-oxalamide], the melting point was found to be 225 °C.

`CN1CCCC1CCNC(=O)c1ccc(O)c(NC(=O)C(=O)Nc2cc(Cl)cc(Cl)c2O)c1` (racemic) [Example 34, N-(3,5-Dichloro-2-hydroxy-phenyl)-N′-{2-hydroxy-5-[2-(1-methyl-pyrrolidin-2-yl)-ethylcarbamoyl]-phenyl}-oxalamide (Racemic)]: the melting point came out at 220 °C.

Compound `O=C(Nc1ccc(C(=O)O)cc1O)C(=O)Nc1cc(Cl)cc(Cl)c1O` [Example 24, 4-[(3,5-Dichloro-2-hydroxy-phenylaminooxalyl)-amino]-3-hydroxy-benzoic Acid] showed a melting point of 323 °C.

For `O=C(Nc1cc2ccccc2cc1O)C(=O)Nc1cc(Cl)cc(Cl)c1O` [Example 6, N-(3,5-Dichloro-2-hydroxy-phenyl)-N′-(3-hydroxy-naphthalen-2-yl)-oxalamide], the melting point is 313 °C.

Take `O=C(Nc1cc(-c2ccccc2)ccc1O)C(=O)Nc1cc(Cl)cc(Cl)c1O` [Example 5, N-(3,5-Dichloro-2-hydroxy-phenyl)-N′-(4-hydroxy-biphenyl-3-yl)-oxalamide]: the melting point was 288 °C.

Regarding `CN1CCN(CCCNC(=O)c2ccc(O)c(NC(=O)C(=O)Nc3cc(Cl)cc(Cl)c3O)c2)CC1` [Example 30, N-(3,5-Dichloro-2-hydroxy-phenyl)-N′-{2-hydroxy-5-[3-(4-methyl-piperazin-1-yl)-propylcarbamoyl]-phenyl}-oxalamide], the melting point is 232 °C.

In turn, `O=C(Nc1cc(F)ccc1O)C(=O)Nc1cc(Cl)cc(Cl)c1O` [Example 18, N-(3,5-Dichloro-2-hydroxy-phenyl)-N′-(5-fluoro-2-hydroxy-phenyl)-oxalamide] displayed a melting point of 297 °C.

`CCOC(=O)C(Cc1ccccc1)NC(=O)c1ccc(O)c(NC(=O)C(=O)Nc2cc(Cl)cc(Cl)c2O)c1` (stereo in doubt) [Example 32, 2(2R)-{3-[(3,5-Dichloro-2-hydroxy-phenylaminooxalyl)-amino]-4-hydroxy-benzoylamino}-3-phenyl-propionic acid ethyl ester]: the melting point worked out at 254 °C.

As to `O=C(Nc1cc(Cl)ccc1O)C(=O)Nc1cc(Cl)cc(Cl)c1O` [Example 7, N-(5-Chloro-2-hydroxy-phenyl)-N′-(3,5-dichloro-2-hydroxy-phenyl)-oxalamide], the melting point amounted to 311 °C.

`O=C(Nc1cc(C(=O)NCc2ccncc2)ccc1O)C(=O)Nc1cc(Cl)cc(Cl)c1O` [Example 33, N-(3,5-Dichloro-2-hydroxy-phenyl)-N′-{2-hydroxy-5-[(pyridin-4-ylmethyl)-carbamoyl]-phenyl}-oxalamide] returned a melting point of 250 °C.

Compound `COc1ccc(O)c(NC(=O)C(=O)Nc2cc(Cl)cc(Cl)c2O)c1` [Example 17, N-(3,5-Dichloro-2-hydroxy-phenyl)-N′-(2-hydroxy-5-methoxy-phenyl)-oxalamide] returned a melting point of 273 °C.

Take `CCOC(=O)c1ccc(O)c(NC(=O)C(=O)Nc2cc(Cl)cc(Cl)c2O)c1` [Example 25, 3-[(3,5-Dichloro-2-hydroxy-phenylaminooxalyl)-amino]-4-hydroxy-benzoic Acid Ethyl Ester]: the melting point is 270 °C.

As a reminder, the melting point is the temperature, or range, at which the solid turns liquid.
